In paper PMC12518634, “The noncanonical function of liver-type phosphofructokinase potentiates the efficacy of HDAC inhibitors in cancer” (Signal Transduction and Targeted Therapy, 2025):
Read-outs that look alike come from different tables or passages of the source.

Assays:
1405R3 = assay: High-throughput drug screen, CellTiter-Glo viability, 72 h; format: cell-based, human; set-up: AUC: scale not given here; conditions: for EC50: Homo sapiens, 72 h
Outline: (§1)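 Cholangiocarcinoma cells were seeded at 3000/well in 384-well plates and dosed after 24 h. Drugs were tested at 10, 1, 0.1, 0.01 and 0.001 μM in duplicate for 72 h, with viability read by CellTiter-Glo luminescence.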

783C-6 = assay: as above; format: cell-based, human; set-up: AUC: scale not given here; conditions: for EC50: Homo sapiens, 72 h
Outline: as §1

1405R3 cells = assay: Cell viability assay (CellTiter-Glo, 72 h), GI50; format: cell-based; conditions: Homo sapiens, Fig. 1b
Experimental: (§2) Cell viability was assessed using the CellTiter-Glo luminescent cell viability assay (Vazyme, DD1101) following the manufacturer’s instructions. Briefly, 5000 cells per well were seeded into a 96-well white bottom permeable plate. Different concentrations of drugs were added to each well. After 72 h of treatment, a mixture of CellTier reagent and serum-free culture medium was prepared at a 1:1 ratio, and 100 μL of the mixture was added to each well. After incubation at 37 °C for 15 min, the luminescence was measured using a microplate reader (Synergy H1, Biotek). All the experiments were conducted in triplicate. Cell viability (relative luminescence) was defined as the luminescence of the drug treatment relative to that of the vehicle control.

783C-6 cells = assay: Cell viability assay (CellTiter-Glo, 72 h), GI50; format: cell-based; conditions: Homo sapiens
Experimental: as §2

HuCCT1 cells = assay: Cell viability assay (CellTiter-Glo, 72 h), GI50; format: cell-based; conditions: Homo sapiens
Experimental: as §2

RBE cells = assay: Cell viability assay (CellTiter-Glo, 72 h), GI50; format: cell-based; conditions: Homo sapiens, Fig. 1b
Experimental: as §2

SK-CHA-1 cells = assay: Cell viability assay (CellTiter-Glo, 72 h), GI50; format: cell-based; conditions: Homo sapiens, Fig. 1b
Experimental: as §2

1405R3 xenografts = assay: Cell-derived xenograft tumor growth; format: in vivo; conditions: mice xenografted with PFKL low-expressed 1405R3 cells; n = 5 mice per group; Fig. 2b, c
Experimental: (§3) For cell-derived xenograft (CDX) models, tumor cells were resuspended in saline and combined with an equal volume of Matrigel. A total of 1 × 10^6 cells in a 0.1 ml mixture were injected subcutaneously into the right flank of 6-week-old male nude mice. Once the tumor volume reached approximately 100 mm³, the mice were randomly grouped and treated with drugs or saline. The tumor volume was measured every 3 days and calculated via the following formula: tumor volume = (length × width^2) × 0.5. When the tumor volume reached 1500 mm³, the mice were euthanized via CO2 asphyxiation. The tumor tissues were harvested for further study.

783C-6 xenografts = assay: Cell-derived xenograft tumor growth; format: in vivo; conditions: mice xenografted with PFKL high-expressed 783C-6 cells, n = 5 mice per group, Fig. 2b
Experimental: as §3

HuCCT1 xenografts = assay: Cell-derived xenograft tumor growth; format: in vivo; conditions: mice xenografted with PFKL low-expressed HuCCT1 cells; n = 5 mice per group; Fig. 2b, c
Experimental: as §3

SK-CHA-1 xenografts = assay: Cell-derived xenograft tumor growth; format: in vivo; conditions: mice xenografted with PFKL high-expressed SK-CHA-1 cells; n = 5 mice per group; Fig. 2b, c
Experimental: as §3

TFK1 xenografts = assay: Cell-derived xenograft tumor growth; format: in vivo; conditions: mice xenografted with PFKL high-expressed TFK1 cells; n = 5 mice per group; Fig. 2b, c
Experimental: as §3

CC11 PDX tumors = assay: CCA patient-derived xenograft tumor growth; format: in vivo; conditions: n = 5 mice per group, Fig. 2d, e
Source text: (§4) For patient-derived xenograft (PDX) models, fresh tumor samples were cut into small pieces of approximately 1 mm³ and subcutaneously transplanted into the flanks of NSG mice (P1 generation). After 2 to 3 months of tumor growth, the established PDX tumors were transplanted into subsequent generations (P2-Pn) under the skin of nude or NSG mice. When the tumors reached approximately 100 mm^3, the mice were randomly allocated to different groups and treated with HDAC inhibitors or saline. Tumor volume calculation, euthanasia of the mice, and specimen preparation followed the procedures of the CDX model.

CC16 PDX tumors = assay: CCA patient-derived xenograft tumor growth; format: in vivo; conditions: n = 5 mice per group, Fig. 2d, e
Source text: as §4

CC51 PDX tumors = assay: CCA patient-derived xenograft tumor growth; format: in vivo; conditions: n = 5 mice per group, Fig. 2d, e
Source text: as §4

CC52 PDX tumors = assay: CCA patient-derived xenograft tumor growth; format: in vivo; conditions: n = 5 mice per group, Fig. 2d, e
Source text: as §4

CC56 PDX tumors = assay: CCA patient-derived xenograft tumor growth; format: in vivo; conditions: n = 5 mice per group, Fig. 2d, e
Source text: as §4

CC57 PDX tumors = assay: CCA patient-derived xenograft tumor growth; format: in vivo; conditions: n = 5 mice per group, Fig. 2d, e
Source text: as §4

[1] = 783C-6 after interference with LHCGR si-1, Fig. 1f
[2] = 783C-6 after interference with LHCGR si-2, Fig. 1f
[3] = 783C-6 after interference with NFIA si-1, Fig. 1f
[4] = 783C-6 after interference with NFIA si-2, Fig. 1f
[5] = 783C-6 after interference with PFKFB1 si-1, Fig. 1f
[6] = 783C-6 after interference with PFKFB1 si-2, Fig. 1f
[7] = 783C-6 after interference with PFKL si-1, Fig. 1f
[8] = 783C-6 after interference with PFKL si-2, Fig. 1f
[9] = 783C-6 expressing sgNC, Fig. 1g
[10] = 783C-6 expressing sgPFKL-1, Fig. 1g
[11] = 783C-6 expressing sgPFKL-2, Fig. 1g
[12] = HuCCT-1, 72 h, HuCCT1, 72 h, CellTiter-Glo, Fig. 1b
[13] = HuCCT-1, 72 h, HuCCT1 vector, 72 h, Fig. 1j
[14] = HuCCT-1, 72 h, HuCCT1 with PFKL overexpression (ovPFKL), 72 h, Fig. 1j

| SMILES | GI50 (1405R3 cells) | GI50 (783C-6 cells; 783C-6, CellTiter-Glo, Fig. 1b) | GI50 (783C-6 cells; [1]) | GI50 (783C-6 cells; [2]) | GI50 (783C-6 cells; [3]) | GI50 (783C-6 cells; [4]) | GI50 (783C-6 cells; [5]) | GI50 (783C-6 cells; [6]) | GI50 (783C-6 cells; [7]) | GI50 (783C-6 cells; [8]) | GI50 (783C-6 cells; [9]) | GI50 (783C-6 cells; [10]) | GI50 (783C-6 cells; [11]) | GI50 (HuCCT1 cells; [12]) | GI50 (HuCCT1 cells; [13]) | GI50 (HuCCT1 cells; [14]) | GI50 (RBE cells) | GI50 (SK-CHA-1 cells) | tumor growth (1405R3 xenografts) | tumor growth (783C-6 xenografts) | further results |
| --- | --- | --- | --- | --- | --- | --- | --- | --- | --- | --- | --- | --- | --- | --- | --- | --- | --- | --- | --- | --- | --- |
| C/C=C1\NC(=O)[C@H]2CSSCC/C=C/[C@H](CC(=O)N[C@H](C(C)C)C(=O)N2)OC(=O)[C@H](C(C)C)NC1=O [Romidepsin, romidepsin] | 64.4 nM | 2.55 nM | 3.8 nM | 3.4 nM | 2.5 nM | 2.8 nM | 3.1 nM | 2.9 nM | 38.8 nM | 11.4 nM | 2.9 nM | 34.8 nM | 15.3 nM | 83.4 nM | 74 nM | 3.96 nM | 115 nM | 5.5 nM | limited efficacy | markedly inhibited tumor growth | AUC (1405R3): 228.5; DSS (1405R3): 26.8; MIN (1405R3): 0; EC50 (1405R3): 51.3 nM; AUC (783C-6): 354.8; DSS (783C-6): 43.7; MIN (783C-6): 0; EC50 (783C-6): 2.7 nM; GI50 (783C-6 cells; 783C-6, romidepsin alone or combined with PFKL enzymatic activity modifier, Fig. 3b second table): 4.3 nM; GI50 (783C-6 cells; 783C-6, romidepsin alone or combined with glycolysis inhibitors, Fig. 3b first table): 3.49 nM; GI50 (HuCCT1 cells; HuCCT-1, HuCCT1, pretreated with peptide or NS for 12 h, then romidepsin 72 h, Fig. 5g): 93.5 nM; tumor growth (HuCCT1 xenografts): limited efficacy; tumor growth (SK-CHA-1 xenografts): markedly inhibited tumor growth; tumor growth (TFK1 xenografts): markedly inhibited tumor growth; PDX tumor growth compared to the control group (CC11 PDX tumors): notably attenuated the growth; PDX tumor growth compared to the control group (CC16 PDX tumors): notably attenuated the growth; PDX tumor growth compared to the control group (CC51 PDX tumors): no significant disparities; PDX tumor growth compared to the control group (CC52 PDX tumors): notably attenuated the growth; PDX tumor growth compared to the control group (CC56 PDX tumors): no significant disparities; PDX tumor growth compared to the control group (CC57 PDX tumors): notably attenuated the growth |
| Cc1[nH]c2ccccc2c1CCNCc1ccc(/C=C/C(=O)NO)cc1 [Panobinostat, panobinostat] | 162 nM | 37.4 nM | 48 nM | 65.5 nM | 56.6 nM | 51.5 nM | 59 nM | 50.5 nM | 590 nM | 276 nM | 52.4 nM | 467 nM | 250 nM | 244 nM | 285 nM | 31.2 nM | 276 nM | 72.2 nM | limited efficacy | markedly inhibited tumor growth | AUC (1405R3; 1405R3 DSRT analysis, area under the dose-response curve): 218.4; DSS (1405R3; 1405R3 DSRT analysis, drug sensitivity score): 25.4; MIN (1405R3; 1405R3 DSRT analysis, lower asymptote of fitted dose-response curve): 0; EC50 (1405R3; 1405R3 DSRT analysis, CellTiter-Glo viability, fitted dose-response curve, Min.Conc.tested 1, Max.Conc.tested 10000, GI50, read-out: EC50): 64.9 nM; DSS (783C-6; 783C-6 cells, DSS of DSRT analysis): 31.3; AUC (783C-6; 783C-6 cells, area under the dose-response curve): 262.4; MIN (783C-6; 783C-6 cells, minimum of dose-response curve): 0.3; EC50 (783C-6; read-out: EC50): 22.9 nM; GI50 (783C-6 cells; 783C-6 siNC, Fig. 1f): 61.4 nM; tumor growth (HuCCT1 xenografts): limited efficacy; tumor growth (SK-CHA-1 xenografts): markedly inhibited tumor growth; tumor growth (TFK1 xenografts): markedly inhibited tumor growth; PDX tumor growth compared to the control group (CC11 PDX tumors): notably attenuated the growth; PDX tumor growth compared to the control group (CC16 PDX tumors): notably attenuated the growth; PDX tumor growth compared to the control group (CC51 PDX tumors): no significant disparities; PDX tumor growth compared to the control group (CC52 PDX tumors): notably attenuated the growth; PDX tumor growth compared to the control group (CC56 PDX tumors): no significant disparities; PDX tumor growth compared to the control group (CC57 PDX tumors): notably attenuated the growth |
